Assay results: patent publication US20170202826A1, “DOSAGE FORMS OF APIXABAN” (Pfizer Inc., priority 2009, published 2017)

Assay: Aqueous solubility of apixaban
Type: physicochemical
Settings: aqueous medium, aqueous buffer; room temperature, pH 6.8

solubility: < 1 µg/mL
Structure (SMILES): COc1ccc(-n2nc(C(N)=O)c3c2C(=O)N(c2ccc(N4CCCCC4=O)cc2)CC3)cc1 [apixaban, 1-(4-methoxyphenyl)-7-oxo-6-[4-(2-oxopiperidin-1-yl)phenyl]-4,5,6,7-tetrahydro-1H-pyrazolo[3.4-c]pyridine-3-carboxamide]
